Values after ≈ are worked out from the molar mass of the structure shown. Read-outs that look alike come from different tables or passages of the source. Bounds are passed on as bounds.

Data set [1] concerns T. brucei PSMB4^F24L. Description: Growth inhibition of T. brucei expressing F24L mutant 20S proteasome β4 subunit. The class given is cell-based, Trypanosoma brucei. To be noted: Trypanosoma brucei, read-out: T. brucei PSMB4^F24L EC50. Here is the method: (§1) For determination of 50% growth inhibition, all compounds were dissolved in DMSO, and 200 nL of threefold serially diluted compounds were added into solid-bottom 384-well white plates (Greiner Bio-One, Kremsmunster, Austria) by an Echo 555 acoustic liquid-handling system. Forty microliters of 10^4 cells/mL of T. b. brucei parasites was added into each well, and the plates were incubated in a 5% CO2 incubator at 37 °C for 48 h. Viability of parasites were determined by measuring intracellular ATP levels, using CellTiter-Glo (CTG) luminescent cell viability reagent (Promega, Madison, Wisconsin WI, USA). The EC50 values were determined by using GraphPad Prism software. Growth inhibition assays for all clinical isolates were carried out as described earlier. All experiments had two technical replicates and three biological replicates. Appropriate statistical tests were used for evaluating significance, and mean ± SEM is represented in the tables.

Data set [2] in a line: Mouse plasma protein binding. The settings on record: for fraction unbound: mouse plasma. The class given is in vitro ADME. Here is the method: (§2) Test compounds’ solubility was determined in a high-throughput thermodynamic solubility assay, as described previously. The PAMPA (parallel artificial membrane) assays were carried out, using a standard protocol. Plasma protein binding was determined by using mouse blood, whilst brain tissue binding was determined by using rat brain tissue homogenate. Intrinsic metabolic clearances were determined in mouse liver microsomes, using the compound depletion approach and LC–MS/MS quantification.

The subject of data set [3] is T. b. brucei. In words: Growth inhibition of T. b. brucei strains BS221, BS221 (P2 KO), STIB950. Type of data set: cell-based. The settings on record: Trypanosoma brucei, mean ± SD, read-out: T. b. brucei EC50. On the procedure:
The T. b. brucei strain Lister 427 (bloodstream form) parasites were continuously grown in complete HMI-9 medium supplemented with 10% Serum Plus and 10% heat-inactivated fetal bovine serum (FBS). All other parasite strains were cultured as described elsewhere.
as §1, with “Appropriate statistical tests were used for evaluating significance, and mean ± SEM is represented in the tables.” left out

The subject of data set [4] is T. brucei PSMB4^WT. Description: Growth inhibition of T. brucei expressing wild-type 20S proteasome β4 subunit. The class given is cell-based. To be noted: Trypanosoma brucei, read-out: T. brucei PSMB4^WT EC50. Here is the method:
as §1

Data set [5] relates to T. b. gambiense. In words: Growth inhibition of T. b. gambiense strains. Type of data set: cell-based. The settings on record: Trypanosoma brucei, mean ± SD, read-out: T. b. gambiense EC50.
Data set [6] in a line: HepG2 cytotoxicity assay (CCK-8, 96 h). The class given is cell-based, human. To be noted: human, HepG2 cells, mean ± SEM. On the procedure: The HepG2 (human hepatocellular carcinoma) cells were obtained from ATCC (American Type Culture Collection) and grown in RPMI media. Cytotoxicity assay was performed in 384-well format, and 25 µL, approximately 1.6 × 10^4 cells/mL, suspension was added to clear-bottom 384-well Griener plates and incubated in 5% CO2 incubator, at 37 °C for 24 h. Once the cells adhered, 125 nL of threefold serially diluted compounds in DMSO was added. Plates were incubated for 96 h, at 37 °C, in a 5% CO2 incubator. Plates were read for viability by adding 10 µL of CCK-8 reagent (APExBIO) into each well, followed by 3 h incubation and absorbance reading at […], using an Envision plate reader. […] Puromycin was used as a positive control. All experiments had two technical replicates and three biological replicates. Appropriate statistical tests were used for evaluating significance, and mean ± SEM is represented in the tables.

Data set [7] is described as follows: High-throughput thermodynamic solubility assay. Type of data set: physicochemical. The settings on record: for solubility: pH 6.8, thermodynamic from solid. Here is the method:
as §2

Data set [8] deals with MDR1 (Pgp). Description: in vitro. The settings on record: dog, MDCK-MDR1. On the procedure: In order to evaluate potential of brain permeability, all three compounds were tested in an MDR1-MDCK permeability assay. […] Those that have a high efflux ratio are generally substrates for Pgp transporters, thereby having a higher propensity to be excluded from the brain. […] To assess directly the TP compounds’ ability to penetrate brain, mice were dosed with compound, and plasma and brains were collected after 5 and 60 min following intravenous dosing.

Data set [9] in a line: Per oral pharmacokinetics in mouse. The class given is in vivo. To be noted: for AUC / Cmax: total. Here is the method:
Determination of intravenous (i.v.) and per oral (p.o.) pharmacokinetics (PK) were carried out by using male BALB/c mice. For i.v. PK studies, compounds were formulated at a concentration of 2.5 mg/mL in 75% PEG300 and 25% D5W (5% dextrose in distilled water). To avoid any granular material, the solution was filtered, using a 0.45 μm syringe filter. The filtered solutions were dosed intravenously to mice via the lateral tail vein, at 5 mg/kg, with a dosing volume of 2 mL/kg. For all the p.o. PK studies, compounds were resuspended in 0.5% v/v methyl cellulose in 0.5 % v/v tween 80 solution. For 20 mg/kg dosing, 200 µL of compounds was administered orally to mice. Six blood samples of 50 μL each were collected serially from each animal, up to 24 h after dosing. Blood samples were collected into heparin microtainers and centrifuged, and then plasma was separated and frozen until analysis. Plasma samples (20 μL) were extracted with acetonitrile:methanol (3:1) containing internal standard. The samples were vortexed and then centrifuged in an Eppendorf centrifuge 5810R, at a setting of 4000 rpm, for 5 min, at 4 °C. The supernatant was transferred to a 96-well analysis plate and analyzed, using optimized LC/MS/MS conditions. For every experiment, 3 mice were used per compound, per dose. The plasma concentration-time profile was obtained by plotting the mean value from the three animals at each time point. Various PK parameters, such as Cmax (maximum concentration), area under curve (AUC) and oral bioavailability (F) for compounds, were calculated by non-compartmental regression analysis, using an in-house fitting program developed at GNF [8]. All the in-life studies were carried out under protocols approved by the Animal Care and Use Committee (IACUC), following animal ethics guidelines of GNF.

The mark [10] stands for this setting: GAMBIENSE / STIB930, strain STIB930.
The mark [11] stands for this setting: male, BALB/c, plasma, po, p.o. 20 mg/kg, 0 to infinity.
Setting [12] is: male, BALB/c, plasma, po, p.o. 20 mg/kg.

In general, EC50 refers to the concentration that produces a half-maximal response. A word on the fraction unbound: it is the share of the substance not bound to proteins or other matrix. Read a high fraction unbound as weak binding. As a reminder, the CC50 is the concentration that lowers cell viability or growth by half. Low values mean greater toxicity to the cells, high ones lower toxicity to the cells. What is called solubility is how much of the substance goes into solution per volume. Higher therefore signals much dissolved substance. Broadly, the efflux ratio is the permeability from basolateral to apical divided by that in the opposite direction, in the common usage. One may read the AUC as the area under the concentration-time curve, a measure of exposure. Read a high AUC as more exposure. For orientation: Cmax means the peak of the concentration-time curve. Turning to `Cc1nc(C)c(C(=O)Nc2ccc(F)c(-c3nc4ncc(-c5ccccc5)cn4n3)c2)o1` [GNF3849], the EC50 in data set [1] worked out at 2200 ± 20 nM; in data set [3] (STIB950, strain STIB950) it was 0.9 ± 0.2 nM; in data set [3] (strain BS221 (P2 KO)), 4 ± 2.5 nM; in data set [3] (strain BS221) it was 1.9 ± 0.8 nM; in data set [4] it was 10 ± 3 nM; in data set [5] (setting [10]) it was 4.5 ± 1 nM. Also, the EC50 came out at 4.8 ± 1.1 nM in data set [5] (GAMBIENSE, strain K048) and 1.9 ± 1 nM in data set [5] (GAMBIENSE, strain R130). In addition, in data set [2], the “Mouse plasma protein binding” value was “high”. In addition, the fraction unbound in data set [2] is less than 0.01. For the same compound, the midpoint of cytotoxicity in data set [6], the CC50 at 96 h, lay at 1100 ± 200 nM. The “Solubility pH 6.8” value in data set [7] (pH 6.8) is “poor”. The compound also gave a solubility in data set [7] of less than 2 µg/mL. In addition, in data set [8], the efflux ratio was determined as 3.2. In [9] (setting [11]), this compound came in with an AUC of 108 µM·h. The Cmax in [9] (setting [12]) came to 7.16 µM. Further, the “Exposure, fold less than GNF6702” value in data set [9] (oral) is ~ 2.5 fold. Besides, the Tmax in data set [9] (p.o. 20 mg/kg) is 3 H. Besides, the “AUC, free fraction (value in parenthesis)” value in data set [9] (p.o. 20 mg/kg, 0 to infinity, free) is less than 1.0751 µM·h. Further, the “Cmax, free fraction (value in parenthesis)” value in data set [9] (p.o. 20 mg/kg, free) is less than 0.0716 µM.

Turning to `Cc1nc(C)c(C(=O)Nc2ccc(F)c(-c3nc4ncc(-c5ccccn5)cn4n3)c2)o1` [GNF6702], the EC50 in data set [3] (STIB950, strain STIB950) stood at 1.2 ± 0.5 nM; in data set [3] (strain BS221 (P2 KO)), 3.5 ± 1.2 nM; in data set [3] (strain BS221) it was 0.9 ± 0.3 nM; in data set [5] (setting [10]), 3.7 ± 2 nM; in data set [5] (GAMBIENSE, strain K048), 3.5 ± 1.4 nM; in [5] (GAMBIENSE, strain R130), 2.3 ± 1.1 nM.

What is called bioavailability is dose-corrected exposure relative to a reference, in per cent. As to `Cc1nc(C)c(C(=O)Nc2ccc(F)c(-c3nc4ncc(C(C)(C)C)cn4n3)c2)o1` [NITD689], the EC50 came to 1900 ± 20 nM in [1] and 20 ± 4 nM in data set [4]. In addition, the fraction unbound in [2] was 0.095. In [6], this compound showed a CC50 at 96 h of more than 20000 nM. Further, in data set [7], the concentration in solution (solubility) was 71 µg/mL (≈ 174 µM). In addition, in data set [8], the efflux ratio turned out to be 0.9. This compound also gave an AUC in data set [9] (setting [11]) of 89.7 µM·h. The bioavailability in data set [9] (male, BALB/c, plasma, po, p.o. 20 mg/kg, read-out: F (oral bioavailability)) turned out to be 100%. In data set [9] (setting [12]), this compound came in with a Cmax of 12.2 µM. The Tmax in data set [9] (p.o. 20 mg/kg) was 0.5 H. The “Cmax, free fraction (value in parenthesis)” value in [9] (p.o. 20 mg/kg, free) stood at 1.1562 µM.
